Data published in ChEMBL document CHEMBL5724806, “Unraveling interindividual differences and functional consequences of gut microbial metabolism of immunosuppressants” (2024).

Legend:
Type in all cases: ADME
[1] = (§1) The drug is tested on Bacteroides fragilis strain: DSM2151 for biotransformation under anaerobic condition. The drug concentrations were measured over 6 timepoints collected between 0 and 12 hours of incubation by liquid-chromatography-coupled mass spectrometry (LC–MS); set-up: dose 5 uM, timepoint 0, 1.5, 3, 6, 9, 12 hours; conditions: 5 µM
[2] = as §1, with “the gut metagenome community of A-02 with ENA study accession number: PRJEB31790” for “Bacteroides fragilis strain: DSM2151”, “7” for “6”; set-up: dose 5 uM, timepoint 0, 0.75, 1.5, 3, 6, 9, 12 hours; conditions: 5 µM
[3] = The drug is tested on Faecalibacterium prausnitzii strain: DSM17677 for biotransformation under anaerobic condition. The drug concentrations were measured over 6 timepoints collected between 0 and 12 hours of incubation by liquid-chromatography-coupled mass spectrometry (LC–MS); set-up: dose 5 uM, timepoint 0, 1.5, 3, 6, 9, 12 hours; conditions: faecalibacterium duncaniae, 5 µM
[4] = as §1, with “the gut metagenome community of A-07 with ENA study accession number: PRJEB31790” for “Bacteroides fragilis strain: DSM2151”, “7” for “6”; set-up: dose 5 uM, timepoint 0, 0.75, 1.5, 3, 6, 9, 12 hours; conditions: 5 µM
[5] = as §1, with “the gut metagenome community of P-03 with ENA study accession number: PRJEB31790” for “Bacteroides fragilis strain: DSM2151”, “7” for “6”; set-up: dose 5 uM, timepoint 0, 0.75, 1.5, 3, 6, 9, 12 hours; conditions: 5 µM
[6] = The drug is tested on Bacteroides uniformis strain: DSM6597 for biotransformation under anaerobic condition. The drug concentrations were measured over 6 timepoints collected between 0 and 12 hours of incubation by liquid-chromatography-coupled mass spectrometry (LC–MS); set-up: dose 5 uM, timepoint 0, 1.5, 3, 6, 9, 12 hours; conditions: 5 µM
[7] = The drug is tested on Bacteroides vulgatus strain: DSM1447 for biotransformation under anaerobic condition. The drug concentrations were measured over 6 timepoints collected between 0 and 12 hours of incubation by liquid-chromatography-coupled mass spectrometry (LC–MS); set-up: dose 5 uM, timepoint 0, 1.5, 3, 6, 9, 12 hours; conditions: phocaeicola vulgatus, 5 µM
[8] = The drug is tested on Lactobacillus paracasei strain: ATCC27092 for biotransformation under anaerobic condition. The drug concentrations were measured over 6 timepoints collected between 0 and 12 hours of incubation by liquid-chromatography-coupled mass spectrometry (LC–MS); set-up: dose 5 uM, timepoint 0, 1.5, 3, 6, 9, 12 hours; conditions: lacticaseibacillus paracasei, 5 µM
[9] = (§2) The drug is tested on Gemella morbillorum strain: DSM20572 for biotransformation under microaerobic condition. The drug concentrations were measured over 6 timepoints collected between 0 and 12 hours of incubation by liquid-chromatography-coupled mass spectrometry (LC–MS); set-up: dose 5 uM, timepoint 0, 1.5, 3, 6, 9, 12 hours; conditions: 5 µM
[10] = The drug is tested on Streptococcus mitis strain: DSM12643 for biotransformation under microaerobic condition. The drug concentrations were measured over 6 timepoints collected between 0 and 12 hours of incubation by liquid-chromatography-coupled mass spectrometry (LC–MS); set-up: dose 5 uM, timepoint 0, 1.5, 3, 6, 9, 12 hours; conditions: 5 µM
[11] = The drug is tested on Streptococcus anginosus strain: DSM20563 for biotransformation under anaerobic condition. The drug concentrations were measured over 6 timepoints collected between 0 and 12 hours of incubation by liquid-chromatography-coupled mass spectrometry (LC–MS); set-up: dose 5 uM, timepoint 0, 1.5, 3, 6, 9, 12 hours; conditions: 5 µM
[12] = as §2, with “the gut metagenome community of T-03 with ENA study accession number: PRJEB31790” for “Gemella morbillorum strain: DSM20572”, “7” for “6”; set-up: dose 5 uM, timepoint 0, 0.75, 1.5, 3, 6, 9, 12 hours; conditions: 5 µM
[13] = as §2, with “the gut metagenome community of A-09 with ENA study accession number: PRJEB31790” for “Gemella morbillorum strain: DSM20572”, “7” for “6”; set-up: dose 5 uM, timepoint 0, 0.75, 1.5, 3, 6, 9, 12 hours; conditions: 5 µM
[14] = The drug is tested on Lactobacillus ruminis strain: ATCC25644 for biotransformation under anaerobic condition. The drug concentrations were measured over 6 timepoints collected between 0 and 12 hours of incubation by liquid-chromatography-coupled mass spectrometry (LC–MS); set-up: dose 5 uM, timepoint 0, 1.5, 3, 6, 9, 12 hours; conditions: ligilactobacillus ruminis, 5 µM
[15] = The drug is tested on Lactobacillus reuteri strain: DSM20016 for biotransformation under anaerobic condition. The drug concentrations were measured over 6 timepoints collected between 0 and 12 hours of incubation by liquid-chromatography-coupled mass spectrometry (LC–MS); set-up: dose 5 uM, timepoint 0, 1.5, 3, 6, 9, 12 hours; conditions: limosilactobacillus reuteri, 5 µM
[16] = The drug is tested on Streptococcus salivarius strain: DSM20560 for biotransformation under microaerobic condition. The drug concentrations were measured over 6 timepoints collected between 0 and 12 hours of incubation by liquid-chromatography-coupled mass spectrometry (LC–MS); set-up: dose 5 uM, timepoint 0, 1.5, 3, 6, 9, 12 hours; conditions: 5 µM
[17] = The drug is tested on Parabacteroides distasonis strain: DSM20701 for biotransformation under anaerobic condition. The drug concentrations were measured over 6 timepoints collected between 0 and 12 hours of incubation by liquid-chromatography-coupled mass spectrometry (LC–MS); set-up: dose 5 uM, timepoint 0, 1.5, 3, 6, 9, 12 hours; conditions: 5 µM
[18] = The drug is tested on Streptococcus anginosus strain: DSM20563 for biotransformation under microaerobic condition. The drug concentrations were measured over 6 timepoints collected between 0 and 12 hours of incubation by liquid-chromatography-coupled mass spectrometry (LC–MS); set-up: dose 5 uM, timepoint 0, 1.5, 3, 6, 9, 12 hours; conditions: 5 µM
[19] = The drug is tested on Bacteroides ovatus strain: ATCC 8483 for biotransformation under anaerobic condition. The drug concentrations were measured over 6 timepoints collected between 0 and 12 hours of incubation by liquid-chromatography-coupled mass spectrometry (LC–MS); set-up: dose 5 uM, timepoint 0, 1.5, 3, 6, 9, 12 hours; conditions: 5 µM
[20] = The drug is tested on Bifidobacterium longum strain: DSM20088 for biotransformation under microaerobic condition. The drug concentrations were measured over 6 timepoints collected between 0 and 12 hours of incubation by liquid-chromatography-coupled mass spectrometry (LC–MS); set-up: dose 5 uM, timepoint 0, 1.5, 3, 6, 9, 12 hours; conditions: 5 µM
[21] = The drug is tested on Capnocytophaga ochracea strain: DSM7271 for biotransformation under anaerobic condition. The drug concentrations were measured over 6 timepoints collected between 0 and 12 hours of incubation by liquid-chromatography-coupled mass spectrometry (LC–MS); set-up: dose 5 uM, timepoint 0, 1.5, 3, 6, 9, 12 hours; conditions: 5 µM
[22] = as §1, with “the gut metagenome community of A-03 with ENA study accession number: PRJEB31790” for “Bacteroides fragilis strain: DSM2151”, “7” for “6”; set-up: dose 5 uM, timepoint 0, 0.75, 1.5, 3, 6, 9, 12 hours; conditions: 5 µM
[23] = as §2, with “the gut metagenome community of T-02 with ENA study accession number: PRJEB31790” for “Gemella morbillorum strain: DSM20572”, “7” for “6”; set-up: dose 5 uM, timepoint 0, 0.75, 1.5, 3, 6, 9, 12 hours; conditions: 5 µM
[24] = The drug is tested on Lactobacillus gasseri strain: DSM20243 for biotransformation under microaerobic condition. The drug concentrations were measured over 6 timepoints collected between 0 and 12 hours of incubation by liquid-chromatography-coupled mass spectrometry (LC–MS); set-up: dose 5 uM, timepoint 0, 1.5, 3, 6, 9, 12 hours; conditions: 5 µM
[25] = The drug is tested on Bacteroides thetaiotaomicron strain: DSM2079 for biotransformation under anaerobic condition. The drug concentrations were measured over 6 timepoints collected between 0 and 12 hours of incubation by liquid-chromatography-coupled mass spectrometry (LC–MS); set-up: dose 5 uM, timepoint 0, 1.5, 3, 6, 9, 12 hours; conditions: 5 µM
[26] = as §2, with “the gut metagenome community of T-04 with ENA study accession number: PRJEB31790” for “Gemella morbillorum strain: DSM20572”, “7” for “6”; set-up: dose 5 uM, timepoint 0, 0.75, 1.5, 3, 6, 9, 12 hours; conditions: 5 µM
[27] = as §1, with “the gut metagenome community of T-05 with ENA study accession number: PRJEB31790” for “Bacteroides fragilis strain: DSM2151”, “7” for “6”; set-up: dose 5 uM, timepoint 0, 0.75, 1.5, 3, 6, 9, 12 hours; conditions: 5 µM
[28] = as §1, with “the gut metagenome community of P-04 with ENA study accession number: PRJEB31790” for “Bacteroides fragilis strain: DSM2151”, “7” for “6”; set-up: dose 5 uM, timepoint 0, 0.75, 1.5, 3, 6, 9, 12 hours; conditions: 5 µM
[29] = The drug is tested on Eubacterium rectale strain: DSM17629 for biotransformation under anaerobic condition. The drug concentrations were measured over 6 timepoints collected between 0 and 12 hours of incubation by liquid-chromatography-coupled mass spectrometry (LC–MS); set-up: dose 5 uM, timepoint 0, 1.5, 3, 6, 9, 12 hours; conditions: agathobacter rectalis, 5 µM
[30] = as §2, with “the gut metagenome community of A-01 with ENA study accession number: PRJEB31790” for “Gemella morbillorum strain: DSM20572”, “7” for “6”; set-up: dose 5 uM, timepoint 0, 0.75, 1.5, 3, 6, 9, 12 hours; conditions: 5 µM

| SMILES | Bacterial Biotransformation [1] | Bacterial Biotransformation [2] | Bacterial Biotransformation [3] | Bacterial Biotransformation [4] | Bacterial Biotransformation [5] | Bacterial Biotransformation [6] | Bacterial Biotransformation [7] | Bacterial Biotransformation [8] | Bacterial Biotransformation [9] | Bacterial Biotransformation [10] | Bacterial Biotransformation [11] | Bacterial Biotransformation [12] | Bacterial Biotransformation [13] | Bacterial Biotransformation [14] | Bacterial Biotransformation [15] | Bacterial Biotransformation [16] | Bacterial Biotransformation [17] | Bacterial Biotransformation [18] | Bacterial Biotransformation [19] | Bacterial Biotransformation [20] | also measured |
| --- | --- | --- | --- | --- | --- | --- | --- | --- | --- | --- | --- | --- | --- | --- | --- | --- | --- | --- | --- | --- | --- |
| C[C@H]1C[C@@H]2[C@H]([C@@H](O)C[C@@]3(C)[C@H]2CC[C@]3(O)C(=O)CO)[C@@]2(C)C=CC(=O)C=C12 [METHYLPREDNISOLONE] | Compound NOT metabolized | Compound metabolized | Compound NOT metabolized | Compound metabolized | Compound metabolized | Compound NOT metabolized | Compound NOT metabolized | Compound NOT metabolized | Compound NOT metabolized | Compound NOT metabolized | Compound NOT metabolized | Compound NOT metabolized | Compound metabolized | Compound NOT metabolized | Compound NOT metabolized | Compound NOT metabolized | Compound NOT metabolized | Compound NOT metabolized | Compound NOT metabolized | Compound NOT metabolized | Bacterial Biotransformation [21]: Compound NOT metabolized; Bacterial Biotransformation [22]: Compound metabolized; Bacterial Biotransformation [23]: Compound metabolized; Bacterial Biotransformation [24]: Compound NOT metabolized; Bacterial Biotransformation [25]: Compound NOT metabolized; Bacterial Biotransformation [26]: Compound NOT metabolized; Bacterial Biotransformation [27]: Compound NOT metabolized; Bacterial Biotransformation [28]: Compound metabolized; Bacterial Biotransformation [29]: Compound NOT metabolized; Bacterial Biotransformation [30]: Compound metabolized |
| COc1c(C)c2c(c(O)c1C/C=C(\C)CCC(=O)OCCN1CCOCC1)C(=O)OC2 [MYCOPHENOLATE MOFETIL] | Compound NOT metabolized | Compound metabolized | Compound metabolized | Compound metabolized | Compound metabolized | Compound metabolized | Compound NOT metabolized | Compound metabolized | Compound NOT metabolized | Compound metabolized | Compound metabolized | Compound metabolized | Compound metabolized | Compound metabolized | Compound NOT metabolized | Compound metabolized | Compound metabolized | Compound metabolized | Compound metabolized | Compound NOT metabolized | Bacterial Biotransformation [21]: Compound NOT metabolized; Bacterial Biotransformation [22]: Compound metabolized; Bacterial Biotransformation [23]: Compound metabolized; Bacterial Biotransformation [24]: Compound NOT metabolized; Bacterial Biotransformation [25]: Compound NOT metabolized; Bacterial Biotransformation [26]: Compound metabolized; Bacterial Biotransformation [27]: Compound metabolized; Bacterial Biotransformation [28]: Compound metabolized; Bacterial Biotransformation [29]: Compound NOT metabolized; Bacterial Biotransformation [30]: Compound metabolized |
| COc1c(C)c2c(c(O)c1C/C=C(\C)CCC(=O)O)C(=O)OC2 [MYCOPHENOLIC ACID] | Compound NOT metabolized | Compound NOT metabolized | Compound NOT metabolized | Compound NOT metabolized | Compound NOT metabolized | Compound NOT metabolized | Compound NOT metabolized | Compound NOT metabolized | Compound NOT metabolized | Compound NOT metabolized | Compound NOT metabolized | Compound NOT metabolized | Compound NOT metabolized | Compound NOT metabolized | Compound NOT metabolized | Compound NOT metabolized | Compound NOT metabolized | Compound NOT metabolized | Compound NOT metabolized | Compound NOT metabolized | Bacterial Biotransformation [21]: Compound NOT metabolized; Bacterial Biotransformation [22]: Compound NOT metabolized; Bacterial Biotransformation [23]: Compound NOT metabolized; Bacterial Biotransformation [24]: Compound NOT metabolized; Bacterial Biotransformation [25]: Compound NOT metabolized; Bacterial Biotransformation [26]: Compound NOT metabolized; Bacterial Biotransformation [27]: Compound metabolized; Bacterial Biotransformation [28]: Compound NOT metabolized; Bacterial Biotransformation [29]: Compound NOT metabolized; Bacterial Biotransformation [30]: Compound NOT metabolized |
